From patent US20240065994A1, “COMPOSITIONS AND METHODS FOR PREVENTING OR TREATING DISEASES OR DISORDERS ASSOCIATED WITH PROTEIN MISFOLDING” (priority 2020, published 2024) come the findings set out here.

For data set [1], the system named is Wild-type and Akita mice. Nature of the data set: Insulin tolerance test (ITT). It counts as in vivo. As to conditions: 15 mM BSO, third week, 1 U/Kg insulin i.p., 6 h fast. From the text:
(§1) Animals: C57BL/6-Ins2^Akita/J (Akita) are an excellent model for Mutant-insulin Diabetes of Youth. Akita mice suffer from diabetes due to misfolded proinsulin, as the gene that codes for proinsulin (Ins2) is mutated. […] One male Akita mice was bred to female mice and the progeny were back-crossed to obtain enough number of heterozygous and wild-type male mice. The genotype of the mice was confirmed by using methods described previously. Briefly, the polymerase chain reaction product of the amplicons from the mutated region of the Ins 2 gene were subjected to restriction enzyme digestion and the products of the digestion were separated in agarose gels. Based on the number of fragments that resulted from the digestion, the genotypes of mice were confirmed. Only heterozygous male mice were used in the experiments. After two rounds of breeding, 12 heterozygous Akita and 12 wild-type Akita mice. […] Body weight (see FIG. 1) and food consumption (see FIG. 2) was monitored weekly. […] Mice were intraperitoneally injected with 1 U/Kg body weight of insulin and blood glucose was determined at specified intervals. […] Blood glucose was measured from tail clips using AlphaTrak-2 (Parsipanny, NJ,) glucometer and compatible strips. Blood glucose was measured at 0, 5, 15, 30, 60, 90, 120, 150, 180, and 210 min after injection. […]

The next data set concerns glutathione. Nature of the data set: Effect of BSO on blood glutathione concentration. It counts as in vivo, mice. As to conditions: after eight weeks on 15 mM BSO. From the text:
Animals: C57BL/6-Ins2^Akita/J (Akita) are an excellent model for Mutant-insulin Diabetes of Youth. Akita mice suffer from diabetes due to misfolded proinsulin, as the gene that codes for proinsulin (Ins2) is mutated. […] One male Akita mice was bred to female mice and the progeny were back-crossed to obtain enough number of heterozygous and wild-type male mice. The genotype of the mice was confirmed by using methods described previously. Briefly, the polymerase chain reaction product of the amplicons from the mutated region of the Ins 2 gene were subjected to restriction enzyme digestion and the products of the digestion were separated in agarose gels. Based on the number of fragments that resulted from the digestion, the genotypes of mice were confirmed. Only heterozygous male mice were used in the experiments. After two rounds of breeding, 12 heterozygous Akita and 12 wild-type Akita mice. After reaching 15-weeks of age, mice in each genotype were randomized into two groups of 6 animals each (n=6/group). […] Glutathione was determined as described in experimental methods section. […] Glutathione was determined by a colorimetric method based on an enzymatic recycling method using 5,5′-dithiobis-(2-nitrobenzoic acid) as described earlier (Teitze et al). Using a standard curve with known concentrations the glutathione concentrations were determined and expressed as μg/mL blood.

The subject of a further data set is Akita mice. Briefly: Effect of BSO on fasting glucose. The data set is classed as in vivo. The following applies: 15 mM BSO in drinking water, measured before and 1, 3, 4, 7, 8 weeks after, persisted throughout the study. The source says:
Experimentation was done with Akita mice, which harbor a similar mutation in the proinsulin gene as human patients with MIDY, are used as a laboratory model for MIDY. […] The Akita strain is a monogenic model for phenotypes associated with type 1 diabetes. A spontaneous mutation in the insulin 2 gene leads to incorrect folding of the proinsulin protein producing toxicity in pancreatic beta-cells, reduced beta-cell mass and reduced insulin secretion. As a result, Akita mice suffer with glucose levels that are two to four-fold higher than healthy mice. […] Animals: C57BL/6-Ins2^Akita/J (Akita) are an excellent model for Mutant-insulin Diabetes of Youth. Akita mice suffer from diabetes due to misfolded proinsulin, as the gene that codes for proinsulin (Ins2) is mutated. […] One male Akita mice was bred to female mice and the progeny were back-crossed to obtain enough number of heterozygous and wild-type male mice. The genotype of the mice was confirmed by using methods described previously. […] Fasting glucose was determined using AlphaTrak-2 glucometer. […] Fasting (6 hr) blood glucose was determined from tail clips before starting the mice on BSO and 1, 3, 4, 7, and 8 weeks after treating with BSO. […]

Data set [2] is described as follows: Effect of BSO on food intake. It counts as in vivo, mice. As to conditions: 15 mM BSO in drinking water for eight weeks, measured weekly. The source says:
(§2) Animals: C57BL/6-Ins2^Akita/J (Akita) are an excellent model for Mutant-insulin Diabetes of Youth. Akita mice suffer from diabetes due to misfolded proinsulin, as the gene that codes for proinsulin (Ins2) is mutated. […] One male Akita mice was bred to female mice and the progeny were back-crossed to obtain enough number of heterozygous and wild-type male mice. The genotype of the mice was confirmed by using methods described previously. Briefly, the polymerase chain reaction product of the amplicons from the mutated region of the Ins 2 gene were subjected to restriction enzyme digestion and the products of the digestion were separated in agarose gels. Based on the number of fragments that resulted from the digestion, the genotypes of mice were confirmed. Only heterozygous male mice were used in the experiments. After two rounds of breeding, 12 heterozygous Akita and 12 wild-type Akita mice. After reaching 15-weeks of age, mice in each genotype were randomized into two groups of 6 animals each (n=6/group). All mice were given either 0 mM or 15 mM of D,L-Buthionine-(S,R)-sulfoximine (BSO, Toronto Research Chemicals Inc., ON, CA) administered in drinking water. […]
Experiment 2. […] Food intake was measured every week.
(§3) Body weight (see FIG. 1) and food consumption (see FIG. 2) was monitored weekly. […]

The nature of data set [3]: Effect of BSO on body weight. The following applies: 15 mM BSO in drinking water for eight weeks, weighed weekly. It counts as in vivo, mice.
Excerpt: as §2
Experiment 1. […] Body weight was monitored every week.
as §3

For data set [4], the system named is Wild-type and Akita mice. Briefly: Glucose tolerance test (GTT). The following applies: 15 mM BSO, fifth week, 0.85 g/Kg D-glucose i.p., 6 h fast. The data set is classed as in vivo.
Excerpt: as §1, with “0.85 g/Kg” for “1 U/Kg”, “D-glucose” for “of insulin”

Each structure is given as a SMILES string.

As to `CCCCS(=N)(=O)CC[C@H](N)C(=O)O` (mixture of isomers) [BSO, D,L-Buthionine-(S,R)-sulfoximine], the “effect on insulin tolerance area under the curve” value with Wild-type and Akita mice [1] (Akita mice) is listed as “No effect”; with Wild-type and Akita mice [1] (wild-type mice), “No effect”. In addition, the “effect on blood glutathione concentration” value in the data set with glutathione (Akita mice) and in the data set with glutathione (wild-type mice) was “decreased” each time. In the data set with Akita mice, the “effect on fasting (6 hr) blood glucose” value is listed as “Decrease in glucose levels in Akita was evident within one week”. In addition, the “effect on food intake” value in data set [2] (Akita mice) and in data set [2] (wild-type mice) was “does not affect” each time. In addition, the “effect on body weight” value in data set [3] (Akita mice) and in data set [3] (wild-type mice) was “lack of the effect” each time. For the same compound, the “glucose tolerance area under the curve decreased to” value in the data set with Wild-type and Akita mice [4] (Akita mice, baseline subtracted) was “less than 50%”. Besides, in the data set on Wild-type and Akita mice [4] (wild-type mice), the “effect on glucose tolerance area under the curve” value is on record as “did affect”.
